#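 The concentration for 50% growth inhibition is given as GI50. The concentration for full growth arrest is given as TGI.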
# Experiments:
# Test in all cases: inhibition of tumour cell growth, NCI panel, 384-well format
# NCI-H522 lung = tested on: NCI-H522 lung
# KM12 colon = tested on: KM12 colon
# NCI-H460 NSCLC = tested on: NCI-H460 NSCLC
# NCI/ADR-RES ovarian = tested on: NCI/ADR-RES ovarian
# HCC-2998 colon = tested on: HCC-2998 colon
# SNB-75 CNS = tested on: SNB-75 CNS
# HS 578T breast = tested on: HS 578T breast
# OVCAR-4 ovarian = tested on: OVCAR-4 ovarian
# EKVX NSCLC = tested on: EKVX NSCLC
# NCI-H23 lung = tested on: NCI-H23 lung
# A498 renal = tested on: A498 renal
# MCF7 breast = tested on: MCF7 breast
# DU-145 prostate = tested on: DU-145 prostate
# COLO 205 colon = tested on: COLO 205 colon
# A549 NSCLC = tested on: A549 NSCLC
# ACHN renal = tested on: ACHN renal
# SN12C renal = tested on: SN12C renal
# HT29 colon = tested on: HT29 colon
# IGROV1 ovarian = tested on: IGROV1 ovarian
# SK-OV-3 ovarian = tested on: SK-OV-3 ovarian
# MDA-MB-468 breast = tested on: MDA-MB-468 breast
# LOX IMVI melanoma = tested on: LOX IMVI melanoma
# OVCAR-8 ovarian = tested on: OVCAR-8 ovarian
# UACC-257 melanoma = tested on: UACC-257 melanoma
# BT-549 breast = tested on: BT-549 breast
# HCT-116 colon = tested on: HCT-116 colon
# OVCAR-3 ovarian = tested on: OVCAR-3 ovarian
# HOP-92 NSCLC = tested on: HOP-92 NSCLC
# SF-295 CNS = tested on: SF-295 CNS
# T-47D breast = tested on: T-47D breast
# HOP-62 NSCLC = tested on: HOP-62 NSCLC
# M14 melanoma = tested on: M14 melanoma
# PC-3 prostate = tested on: PC-3 prostate
# U251 glioblastoma = tested on: U251 glioblastoma
# CAKI-1 renal = tested on: CAKI-1 renal
# SNB-19 CNS = tested on: SNB-19 CNS
# RPMI-8226 leukemia = tested on: RPMI-8226 leukemia
# SF-539 CNS = tested on: SF-539 CNS
# HL-60(TB) leukemia = tested on: HL-60(TB) leukemia
# TK-10 renal = tested on: TK-10 renal
# MDA-MB-435 melanoma = tested on: MDA-MB-435 melanoma
# MOLT-4 leukemia = tested on: MOLT-4 leukemia
# NCI-H226 lung = tested on: NCI-H226 lung
# SR leukemia = tested on: SR leukemia
# NCI-H322M lung = tested on: NCI-H322M lung
# RXF 393 renal = tested on: RXF 393 renal
# MDA-MB-231 breast = tested on: MDA-MB-231 breast
# SK-MEL-5 melanoma = tested on: SK-MEL-5 melanoma
# HCT-15 colon = tested on: HCT-15 colon
# SF-268 CNS = tested on: SF-268 CNS
# UACC-62 melanoma = tested on: UACC-62 melanoma
structure (smiles),measurement,setting,value
Cc1ccc(Cl)cc1-c1nc(N)nc(Nc2ccc(Br)cc2)n1,GI50,NCI-H522 lung,23.9 nM
same,TGI,NCI-H522 lung,47.9 nM
same,GI50,KM12 colon,43.4 nM
same,TGI,KM12 colon,94100 nM
same,GI50,NCI-H460 NSCLC,25.2 nM
same,TGI,NCI-H460 NSCLC,63.3 nM
same,GI50,NCI/ADR-RES ovarian,20.9 nM
same,TGI,NCI/ADR-RES ovarian,51.3 nM
same,GI50,HCC-2998 colon,25.9 nM
same,TGI,HCC-2998 colon,170 nM
same,GI50,SNB-75 CNS,45.2 nM
same,TGI,SNB-75 CNS,24300 nM
same,GI50,HS 578T breast,21.4 nM
same,TGI,HS 578T breast,51.1 nM
same,GI50,OVCAR-4 ovarian,57.3 nM
same,TGI,OVCAR-4 ovarian,91800 nM
same,GI50,EKVX NSCLC,49.4 nM
same,TGI,EKVX NSCLC,> 100000 nM
same,GI50,NCI-H23 lung,49.9 nM
same,TGI,NCI-H23 lung,> 100000 nM
same,GI50,A498 renal,38 nM
same,TGI,A498 renal,14800 nM
same,GI50,MCF7 breast,50.1 nM
same,TGI,MCF7 breast,> 100000 nM
same,GI50,DU-145 prostate,39.5 nM
same,TGI,DU-145 prostate,269 nM
same,GI50,COLO 205 colon,34 nM
same,TGI,COLO 205 colon,93.6 nM
same,GI50,A549 NSCLC,88 nM
same,TGI,A549 NSCLC,> 100000 nM
same,GI50,ACHN renal,77 nM
same,TGI,ACHN renal,> 100000 nM
same,GI50,SN12C renal,25.4 nM
same,TGI,SN12C renal,37500 nM
same,GI50,HT29 colon,34.4 nM
same,TGI,HT29 colon,15100 nM
same,GI50,IGROV1 ovarian,73.3 nM
same,TGI,IGROV1 ovarian,> 100000 nM
same,GI50,SK-OV-3 ovarian,38.6 nM
same,TGI,SK-OV-3 ovarian,57000 nM
same,GI50,MDA-MB-468 breast,174 nM
same,TGI,MDA-MB-468 breast,378 nM
same,GI50,LOX IMVI melanoma,55.2 nM
same,TGI,LOX IMVI melanoma,569 nM
same,GI50,OVCAR-8 ovarian,51.8 nM
same,TGI,OVCAR-8 ovarian,> 100000 nM
same,GI50,UACC-257 melanoma,40.1 nM
same,TGI,UACC-257 melanoma,> 100000 nM
same,GI50,BT-549 breast,49.1 nM
same,TGI,BT-549 breast,374 nM
same,GI50,HCT-116 colon,45.2 nM
same,TGI,HCT-116 colon,> 100000 nM
same,GI50,OVCAR-3 ovarian,22.3 nM
same,TGI,OVCAR-3 ovarian,45.8 nM
same,GI50,HOP-92 NSCLC,10400 nM
same,TGI,HOP-92 NSCLC,> 100000 nM
same,GI50,SF-295 CNS,35.5 nM
same,TGI,SF-295 CNS,12600 nM
same,GI50,T-47D breast,23500 nM
same,TGI,T-47D breast,> 100000 nM
same,GI50,HOP-62 NSCLC,36 nM
same,TGI,HOP-62 NSCLC,17600 nM
same,GI50,M14 melanoma,28.9 nM
same,TGI,M14 melanoma,71.2 nM
same,GI50,PC-3 prostate,46 nM
same,TGI,PC-3 prostate,51900 nM
same,GI50,U251 glioblastoma,42.8 nM
same,TGI,U251 glioblastoma,2870 nM
same,GI50,CAKI-1 renal,68.8 nM
same,TGI,CAKI-1 renal,> 100000 nM
same,GI50,SNB-19 CNS,54.1 nM
same,TGI,SNB-19 CNS,14400 nM
same,GI50,RPMI-8226 leukemia,20 nM
same,TGI,RPMI-8226 leukemia,38.3 nM
same,GI50,SF-539 CNS,36.3 nM
same,TGI,SF-539 CNS,1060 nM
same,GI50,HL-60(TB) leukemia,20.5 nM
same,TGI,HL-60(TB) leukemia,35.2 nM
same,GI50,TK-10 renal,70 nM
same,TGI,TK-10 renal,> 100000 nM
same,GI50,MDA-MB-435 melanoma,20 nM
same,TGI,MDA-MB-435 melanoma,39.4 nM
same,GI50,MOLT-4 leukemia,21 nM
same,TGI,MOLT-4 leukemia,37.2 nM
same,GI50,NCI-H226 lung,35.6 nM
same,TGI,NCI-H226 lung,97.8 nM
same,GI50,SR leukemia,17.3 nM
same,TGI,SR leukemia,37.6 nM
same,GI50,NCI-H322M lung,409 nM
same,TGI,NCI-H322M lung,> 100000 nM
same,GI50,RXF 393 renal,32.8 nM
same,TGI,RXF 393 renal,36600 nM
same,GI50,MDA-MB-231 breast,84.4 nM
same,TGI,MDA-MB-231 breast,> 100000 nM
same,GI50,SK-MEL-5 melanoma,24.2 nM
same,TGI,SK-MEL-5 melanoma,58.6 nM
same,GI50,HCT-15 colon,37.4 nM
same,TGI,HCT-15 colon,271 nM
same,GI50,SF-268 CNS,50.4 nM
same,TGI,SF-268 CNS,> 100000 nM
same,GI50,UACC-62 melanoma,45.3 nM
same,TGI,UACC-62 melanoma,> 100000 nM

# From PubChem BioAssay (NCI)
